According to paper PMC11151873, “Cathelicidin-HG Alleviates Sepsis-Induced Platelet Dysfunction by Inhibiting GPVI-Mediated Platelet Activation” (Research, 2024):

Assays:
[1] = system: CLP septic mice; assay: Microvascular thrombosis by fluorescent bead imaging in CLP mice; assay type: in vivo, Male BALB/c mice; conditions: lungs, liver, kidneys; i.p. 2 h after CLP; Cath-HG 1.25, 2.5, 5 mg/kg or clopidogrel 20 mg/kg
Method: (§1) CLP-induced sepsis was performed based on our previous method with minor modifications. Briefly, under sterile conditions, the cecum of anesthetized mice was exposed and tightly ligated approximately 1 cm from the end. Then, the cecum was punctured twice at different mid-points with a 22-gauge needle, gently squeezed to extrude a small amount of fecal matter, returned into the peritoneal cavity which was sutured. Finally, the mice underwent resuscitation through the administration of 1 ml of preheated physiological saline via subcutaneous injection. […] Clopidogrel (20 mg/kg) was administered as a positive control, and blank control mice underwent sham surgery and received saline. All mice were monitored for 72 h after the induction of CLP. Another group of mice underwent the same procedure described above. Twenty-four hours after the surgery, the mice were euthanized, and blood, heart, liver, spleen, lung, and kidney samples were collected for subsequent analysis.

[2] = system: lactate dehydrogenase (LDH); assay: Serum LDH activity in CLP mice; assay type: in vivo, Male BALB/c mice; conditions: i.p. 2 h after CLP; Cath-HG 1.25, 2.5, 5 mg/kg or clopidogrel 20 mg/kg; n = 4
Method: as §1
For platelet count determination, blood was collected in EDTA and analyzed using a PE-6800 Fully Auto Hematology Analyzer (Prokan, Shenzhen, China). […] TPO levels were determined by ELISA, and LDH activity was measured using an LDH assay kit.

[3] = system: CLP septic mice; assay: Bacterial loads in organs of CLP mice; assay type: in vivo, Male BALB/c mice; conditions: heart, liver, spleen, lung, kidney; 24 h after CLP; i.p. Cath-HG 1.25, 2.5, 5 mg/kg or clopidogrel 20 mg/kg
Method: as §1

[4] = system: phosphorylation of Src, Syk, PLCγ2, and Akt; assay: Western blot: phosphorylation of GPVI downstream proteins in collagen-stimulated platelets; assay type: cell-based, mice; conditions: washed platelets, Cath-HG 5, 10, 20 μM 5 min, n = 3, or dasatinib (Src inhibitor)
Method: The platelets were lysed with radioimmunoprecipitation assay buffer containing protease inhibitor and phosphatase inhibitor cocktails, and the protein concentration was determined with a bicinchoninic acid protein assay kit before SDS-polyacrylamide gel electrophoresis separation and polyvinylidene difluoride (PVDF) membrane transferring. The membranes were incubated with corresponding primary antibodies overnight at 4 °C and appropriate horseradish peroxidase-conjugated secondary antibodies at room temperature for 1 h after being blocked with 5% skimmed milk at room temperature for 1 h. Finally, the results were recorded using a FluorChem R chemiluminescence imaging system (ProteinSimple, CA, USA) and analyzed using ImageJ software.

[5] = target: platelet glycoprotein VI (mouse (endogenous in mouse platelets)) (UniProt P0C191)
[6] = system: FeCl3-injured mice; assay: FeCl3-induced carotid artery thrombosis model; assay type: in vivo, Male BALB/c mice; conditions: FeCl3 10% (w/v), i.v. 30 min before injury, Cath-HG 5 mg/kg or heparin 1,000 U/kg
Method: The carotid artery thrombus experiment was carried out as described by Zhang et al. […] Anesthesia was induced with 2.0% isoflurane before the left carotid artery was exposed through a midline neck incision. A small piece of filter paper (2 mm × 1 mm) saturated with 10% (w/v) FeCl3 solution was placed on the carotid artery for 5 min to induce thrombus formation. The filter paper was then removed, and the artery was washed with saline. The carotid blood flow and occlusion time were measured to evaluate thrombus formation with the RFLSI Pro+ laser speckle blood flow imaging system (RWD, Shenzhen, China).

Sequence of UniProt P0C191 (P0C191 22-313): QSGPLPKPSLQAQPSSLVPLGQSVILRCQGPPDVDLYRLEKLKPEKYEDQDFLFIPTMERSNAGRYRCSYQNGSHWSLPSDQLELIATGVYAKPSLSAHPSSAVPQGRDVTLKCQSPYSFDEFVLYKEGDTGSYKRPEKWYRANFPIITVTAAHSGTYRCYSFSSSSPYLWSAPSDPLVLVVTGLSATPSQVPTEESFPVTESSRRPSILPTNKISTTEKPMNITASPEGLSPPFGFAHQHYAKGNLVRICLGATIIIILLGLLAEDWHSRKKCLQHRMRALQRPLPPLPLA

## COC(=O)[C@H](c1ccccc1Cl)N1CCc2sccc2C1 [clopidogrel]
[1]
  microvascular thrombosis (fluorescence of beads): reduced the fluorescence levels of lungs, liver, and kidneys
[2]
  LDH activity in serum: significantly decreased after Cath-HG or clopidogrel treatment
[3]
  bacterial load in organs: reduced the bacterial burden in the organs of CLP mice

## Cc1nc(Nc2ncc(C(=O)Nc3c(C)cccc3Cl)s2)cc(N2CCN(CCO)CC2)n1 [dasatinib]
[4]
  collagen-induced phosphorylation of GPVI downstream proteins (Src, Syk, PLCγ2, Akt): completely inhibited

## Cathelicidin-HG (peptide)
[5]
  inhibition of platelet aggregation in platelet-rich plasma induced by the GPVI-specific agonist convulxin (0.6 nM); Cath-HG 5, 10 and 20 μM, value at 20 μM: 63.2%

## heparin
[6]; laser speckle imaging
  carotid blood flow: significantly increased blood flow
[6]; n = 3, mean ± SD, control 2.9 ± 0.3 min
  mean occlusion time of carotid artery: 5.4 ± 0.3 min
